Source: ChEMBL document CHEMBL1140361, “Tubulin-polymerization inhibitors derived from thalidomide” (2005)

What was measured:
Format in all cases: functional
HL-60 [1] = experiment: Cell growth-inhibitory activity toward human leukemia cell line HL60 at 10 uM concentration
HL-60 [2] = experiment: Cell growth-inhibitory activity toward human leukemia cell line HL60 at 3 uM concentration
HL-60 [3] = experiment: Cell growth-inhibitory activity toward human leukemia cell line HL60 at 6 uM concentration
Sus scrofa = organism: Sus scrofa; experiment: Inhibitory activity against tubulin polymerization at 20 uM

Row | SMILES | inhibition at 10 µM (HL-60 [1]) [%] | inhibition at 3 µM (HL-60 [2]) [%] | inhibition at 6 µM (HL-60 [3]) [%] | Inhibition (Sus scrofa) [%]
1 | O=C1c2cccc(O)c2C(=O)N1c1ccccc1 | ~0 | ~0 | ~0 | –
2 | O=C1c2ccc(O)cc2C(=O)N1c1ccccc1 | 34 | ~0 | < 5 | <10
3 | Cc1cccc(C)c1N1C(=O)c2cccc(O)c2C1=O | ~0 | ~0 | ~0 | –
4 | CC(C)c1cccc(C(C)C)c1N1C(=O)c2ccc(O)cc2C1=O | ~100 | 6 | 72 | <83
5 | Cc1cccc(C)c1N1C(=O)c2ccc(O)cc2C1=O | 6 | ~0 | ~0 | <10
6 | CC(C)c1cccc(C(C)C)c1N1C(=O)c2cccc(O)c2C1=O | 8 | ~0 | ~0 | 7
7 | CC(C)c1cccc(C(C)C)c1N1C(=O)c2ccccc2C1=O | < 5 | ~0 | ~0 | 7
8 | Cc1cccc(C)c1N1C(=O)c2ccccc2C1=O | ~0 | ~0 | ~0 | –
9 | CC(C)c1cccc(C(C)C)c1N1C(=O)c2cccc(N)c2C1=O | ~0 | ~0 | ~0 | <10
10 | CC(C)c1cccc(C(C)C)c1N1C(=O)c2ccc(N)cc2C1=O | 23 | ~0 | < 5 | 81
11 | CC(C)c1cccc(C(C)C)c1N1C(=O)c2cccc([N+](=O)[O-])c2C1=O | ~0 | ~0 | ~0 | <10
12 | CC(C)c1cccc(C(C)C)c1N1C(=O)c2ccc([N+](=O)[O-])cc2C1=O | 16 | ~0 | < 5 | <10
13 | COc1cc2c(c(OC)c1OC)-c1ccc(OC)c(=O)cc1[C@@H](NC(C)=O)CC2 [COLCHICINE] | – | – | – | 78
14 | O=C1c2ccccc2C(=O)N1c1ccccc1 [N-PHENYL-PHTHALIMIDE] | ~0 | ~0 | ~0 | –
15 | O=C1CCC(N2C(=O)c3ccccc3C2=O)C(=O)N1 (stereo not given) [THALIDOMIDE] | – | – | – | <10
